These are literature values, as cited in patent US20050070512A1, “Pharmaceutical composition and methods comprising combinations of 2-alkylidene-19-nor-vitamin D derivatives and an estrogen agonist/antagonist” (Pfizer Inc, priority 2003, published 2005).

Molecules are shown by their SMILES.

For this data set, the system named is HL-60 cells.

With `C=C1[C@H](O)CC(=C/C=C2\CCC[C@]3(C)[C@@H]([C@H](C)CCCC(C)(C)O)CC[C@@H]23)C[C@H]1O` [2-Methylene-19-Nor-1,25-(OH)2D3, 1α,25-dihydroxy-2-methylene-19-nor-vitamin D3], the “Induction of differentiation of HL-60 cells to the monocyte (in words)” value is “activity similar to 1,25-(OH)2D3”. As to `C=C1[C@H](O)CC(=C/C=C2\CCC[C@]3(C)[C@@H]([C@@H](C)CCCC(C)(C)O)CC[C@@H]23)C[C@H]1O` [2-Methylene-19-Nor-20S-1,25-(OH)2D3, (20S)-1α,25-dihydroxy-2-methylene-19-nor-vitamin D3], the “Induction of differentiation of HL-60 cells to the monocyte (in words)” value is recorded as “extremely potent”.
